Measurements published in the supplement of paper PMC8967900.

Experiments:
Assay in all cases: selective drug sensitivity score (sDSS, relative to normal bone marrow) (sDSS (score)); higher = more potent and effective on the cell line relative to normal bone marrow cells
Conditions in all cases: 72 h
ALL-SIL = system: ALL-SIL
KARPAS-45 = system: KARPAS-45
ALL-PO = system: ALL-PO
SEM cells = system: SEM cells
MN-60 = system: MN-60
TANOUE = system: TANOUE
LC4-1 = system: LC4-1
KASUMI-9 = system: KASUMI-9
P12-ICHIKAWA = system: P12-ICHIKAWA
MOLT-16 = system: MOLT-16
DND-41 = system: DND-41
KASUMI-10 = system: KASUMI-10
REH = system: REH
COG-LL-355h = system: COG-LL-355h
HPB-ALL = system: HPB-ALL
PF-382 = system: PF-382
TMD5 = system: TMD5
CCRF-HSB2 = system: CCRF-HSB2
SUP-B15 = system: SUP-B15
COG-LL-332h = system: COG-LL-332h
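Further: ALL cell lines in 384-well plates, five doses spanning 10,000-fold, each plate scaled between vehicle and 100 µmol/L benzalkonium chloride controls, sDSS an adapted area-under-curve metric.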

COc1cc([C@@H]2c3cc4c(cc3[C@@H](O[C@@H]3O[C@@H]5CO[C@@H](c6cccs6)O[C@H]5[C@H](O)[C@H]3O)[C@H]3COC(=O)[C@H]23)OCO4)cc(OC)c1O [Teniposide] (top concentration 10000 nM)
selective drug sensitivity score (ALL-SIL): 0 | selective drug sensitivity score (KARPAS-45): 0 | selective drug sensitivity score (ALL-PO): 0 | selective drug sensitivity score (SEM cells): 0 | selective drug sensitivity score (MN-60): 0 | selective drug sensitivity score (TANOUE): 0 | selective drug sensitivity score (LC4-1): 0 | selective drug sensitivity score (KASUMI-9): 0 | selective drug sensitivity score (P12-ICHIKAWA): 0 | selective drug sensitivity score (MOLT-16): 0 | selective drug sensitivity score (DND-41): 0 | selective drug sensitivity score (KASUMI-10): 0 | selective drug sensitivity score (REH): 0 | selective drug sensitivity score (COG-LL-355h): 0 | selective drug sensitivity score (HPB-ALL): 0 | selective drug sensitivity score (PF-382): 0 | selective drug sensitivity score (TMD5): 0 | selective drug sensitivity score (CCRF-HSB2): 0 | selective drug sensitivity score (SUP-B15): 0 | selective drug sensitivity score (COG-LL-332h): 0

O=C(O)C(=O)O.[NH-][C@@H]1CCCC[C@H]1[NH-].[Pt+2] [Oxaliplatin] (top concentration 100000 nM)
selective drug sensitivity score (ALL-SIL): 3.42 | selective drug sensitivity score (KARPAS-45): -0.08 | selective drug sensitivity score (ALL-PO): -0.78 | selective drug sensitivity score (SEM cells): 8.52 | selective drug sensitivity score (MN-60): -0.38 | selective drug sensitivity score (TANOUE): -6.98 | selective drug sensitivity score (LC4-1): 10.6 | selective drug sensitivity score (KASUMI-9): 13.6 | selective drug sensitivity score (P12-ICHIKAWA): 8.32 | selective drug sensitivity score (MOLT-16): 17.1 | selective drug sensitivity score (DND-41): 1.42 | selective drug sensitivity score (KASUMI-10): 14.2 | selective drug sensitivity score (REH): 10 | selective drug sensitivity score (COG-LL-355h): 4.92 | selective drug sensitivity score (HPB-ALL): -0.78 | selective drug sensitivity score (PF-382): -0.28 | selective drug sensitivity score (TMD5): -0.08 | selective drug sensitivity score (CCRF-HSB2): 15 | selective drug sensitivity score (SUP-B15): 16.6 | selective drug sensitivity score (COG-LL-332h): 14.9

O[C@H]1CC[C@H](Nc2ncc3nc(Nc4c(F)cc(F)cc4F)n([C@H]4CCOC4)c3n2)CC1 [Tanzisertib] (top concentration 10000 nM)
selective drug sensitivity score (ALL-SIL): 0 | selective drug sensitivity score (KARPAS-45): 0 | selective drug sensitivity score (ALL-PO): 1.9 | selective drug sensitivity score (SEM cells): 0 | selective drug sensitivity score (MN-60): 0 | selective drug sensitivity score (TANOUE): 0 | selective drug sensitivity score (LC4-1): 0 | selective drug sensitivity score (KASUMI-9): 0 | selective drug sensitivity score (P12-ICHIKAWA): 0 | selective drug sensitivity score (MOLT-16): 0 | selective drug sensitivity score (DND-41): 0 | selective drug sensitivity score (KASUMI-10): 0 | selective drug sensitivity score (REH): 0 | selective drug sensitivity score (COG-LL-355h): 0.8 | selective drug sensitivity score (HPB-ALL): 0 | selective drug sensitivity score (PF-382): 0 | selective drug sensitivity score (TMD5): 0 | selective drug sensitivity score (CCRF-HSB2): 0.2 | selective drug sensitivity score (SUP-B15): 0 | selective drug sensitivity score (COG-LL-332h): 0

CC[C@@H](C(=O)[C@@H](C)[C@@H](O)[C@H](C)[C@@H]1O[C@@H]([C@@H](CC)C(=O)O)CC[C@@H]1C)[C@H]1O[C@]2(C=C[C@@H](O)[C@]3(CC[C@@](C)([C@H]4CC[C@](O)(CC)[C@H](C)O4)O3)O2)[C@H](C)C[C@@H]1C [Salinomycin] (top concentration 50000 nM)
selective drug sensitivity score (ALL-SIL): 0.6 | selective drug sensitivity score (KARPAS-45): 5.4 | selective drug sensitivity score (ALL-PO): -13.2 | selective drug sensitivity score (SEM cells): -5.8 | selective drug sensitivity score (MN-60): 0.3 | selective drug sensitivity score (TANOUE): -7.5 | selective drug sensitivity score (LC4-1): -10.9 | selective drug sensitivity score (KASUMI-9): -11.4 | selective drug sensitivity score (P12-ICHIKAWA): -2 | selective drug sensitivity score (MOLT-16): 10.7 | selective drug sensitivity score (DND-41): 4.7 | selective drug sensitivity score (KASUMI-10): 1.8 | selective drug sensitivity score (REH): -13 | selective drug sensitivity score (COG-LL-355h): -3.1 | selective drug sensitivity score (HPB-ALL): -1.2 | selective drug sensitivity score (PF-382): -5.4 | selective drug sensitivity score (TMD5): 1.1 | selective drug sensitivity score (CCRF-HSB2): 0.9 | selective drug sensitivity score (SUP-B15): -11.1 | selective drug sensitivity score (COG-LL-332h): -2.9

Oc1nc(-c2ccc(C(F)(F)F)cc2)nc2c1CSCC2 [XAV939] (top concentration 10000 nM)
selective drug sensitivity score (ALL-SIL): -0.14 | selective drug sensitivity score (KARPAS-45): -0.14 | selective drug sensitivity score (ALL-PO): 0.06 | selective drug sensitivity score (SEM cells): 0.56 | selective drug sensitivity score (MN-60): -0.14 | selective drug sensitivity score (TANOUE): -0.14 | selective drug sensitivity score (LC4-1): 0.56 | selective drug sensitivity score (KASUMI-9): -0.14 | selective drug sensitivity score (P12-ICHIKAWA): -0.14 | selective drug sensitivity score (MOLT-16): -0.14 | selective drug sensitivity score (DND-41): -0.14 | selective drug sensitivity score (KASUMI-10): -0.14 | selective drug sensitivity score (REH): -0.04 | selective drug sensitivity score (COG-LL-355h): 0.46 | selective drug sensitivity score (HPB-ALL): -0.14 | selective drug sensitivity score (PF-382): -0.14 | selective drug sensitivity score (TMD5): -0.14 | selective drug sensitivity score (CCRF-HSB2): 0.36 | selective drug sensitivity score (SUP-B15): -0.14 | selective drug sensitivity score (COG-LL-332h): -0.14

Nc1nc(OCc2cc(Br)cs2)c2[nH]cnc2n1 [Lomeguatrib] (top concentration 10000 nM)
selective drug sensitivity score (ALL-SIL): 0 | selective drug sensitivity score (KARPAS-45): 0 | selective drug sensitivity score (ALL-PO): 0.5 | selective drug sensitivity score (SEM cells): 0 | selective drug sensitivity score (MN-60): 0 | selective drug sensitivity score (TANOUE): 0 | selective drug sensitivity score (LC4-1): 0.8 | selective drug sensitivity score (KASUMI-9): 0 | selective drug sensitivity score (P12-ICHIKAWA): 0 | selective drug sensitivity score (MOLT-16): 0 | selective drug sensitivity score (DND-41): 0 | selective drug sensitivity score (KASUMI-10): 0 | selective drug sensitivity score (REH): 1.2 | selective drug sensitivity score (COG-LL-355h): 1 | selective drug sensitivity score (HPB-ALL): 0.1 | selective drug sensitivity score (PF-382): 0 | selective drug sensitivity score (TMD5): 0 | selective drug sensitivity score (CCRF-HSB2): 0 | selective drug sensitivity score (SUP-B15): 0 | selective drug sensitivity score (COG-LL-332h): 0

Cc1cc(OCc2nnc(SC3CCCC3)n2-c2cccnc2)ccc1-c1ccc(S(C)(=O)=O)cc1 [NMS-873] (top concentration 10000 nM)
selective drug sensitivity score (ALL-SIL): 8.96 | selective drug sensitivity score (KARPAS-45): 11.4 | selective drug sensitivity score (ALL-PO): 4.36 | selective drug sensitivity score (SEM cells): 5.06 | selective drug sensitivity score (MN-60): 12.1 | selective drug sensitivity score (TANOUE): 19.4 | selective drug sensitivity score (LC4-1): 4.76 | selective drug sensitivity score (KASUMI-9): 1.26 | selective drug sensitivity score (P12-ICHIKAWA): 19.9 | selective drug sensitivity score (MOLT-16): 17.6 | selective drug sensitivity score (DND-41): 4.46 | selective drug sensitivity score (KASUMI-10): -0.14 | selective drug sensitivity score (REH): 12 | selective drug sensitivity score (COG-LL-355h): 4.56 | selective drug sensitivity score (HPB-ALL): 6.26 | selective drug sensitivity score (PF-382): 11.8 | selective drug sensitivity score (TMD5): 2.26 | selective drug sensitivity score (CCRF-HSB2): 10.5 | selective drug sensitivity score (SUP-B15): 10.6 | selective drug sensitivity score (COG-LL-332h): 5.86

CS(=O)(=O)N1CCN(Cc2cc3nc(-c4cccc5[nH]ncc45)nc(N4CCOCC4)c3s2)CC1 [Pictilisib] (top concentration 10000 nM)
selective drug sensitivity score (ALL-SIL): 4.56 | selective drug sensitivity score (KARPAS-45): 6.36 | selective drug sensitivity score (ALL-PO): 14.6 | selective drug sensitivity score (SEM cells): 9.66 | selective drug sensitivity score (MN-60): 2.96 | selective drug sensitivity score (TANOUE): -5.84 | selective drug sensitivity score (LC4-1): 0.16 | selective drug sensitivity score (KASUMI-9): 10.1 | selective drug sensitivity score (P12-ICHIKAWA): 1.16 | selective drug sensitivity score (MOLT-16): 4.16 | selective drug sensitivity score (DND-41): -1.44 | selective drug sensitivity score (KASUMI-10): 3.96 | selective drug sensitivity score (REH): 10.5 | selective drug sensitivity score (COG-LL-355h): 12 | selective drug sensitivity score (HPB-ALL): -0.04 | selective drug sensitivity score (PF-382): 6.26 | selective drug sensitivity score (TMD5): 2.56 | selective drug sensitivity score (CCRF-HSB2): 4.56 | selective drug sensitivity score (SUP-B15): 0.16 | selective drug sensitivity score (COG-LL-332h): 0.46

CC(C)(C#N)c1cc(Cn2cncn2)cc(C(C)(C)C#N)c1 [Anastrozole] (top concentration 10000 nM)
selective drug sensitivity score (ALL-SIL): 0 | selective drug sensitivity score (KARPAS-45): 0 | selective drug sensitivity score (ALL-PO): 0 | selective drug sensitivity score (SEM cells): 0 | selective drug sensitivity score (MN-60): 0 | selective drug sensitivity score (TANOUE): 0 | selective drug sensitivity score (LC4-1): 0 | selective drug sensitivity score (KASUMI-9): 0 | selective drug sensitivity score (P12-ICHIKAWA): 0 | selective drug sensitivity score (MOLT-16): 0 | selective drug sensitivity score (DND-41): 2.9 | selective drug sensitivity score (KASUMI-10): 0 | selective drug sensitivity score (REH): 0 | selective drug sensitivity score (COG-LL-355h): 0 | selective drug sensitivity score (HPB-ALL): 0.2 | selective drug sensitivity score (PF-382): 0 | selective drug sensitivity score (TMD5): 0.6 | selective drug sensitivity score (CCRF-HSB2): 0 | selective drug sensitivity score (SUP-B15): 0 | selective drug sensitivity score (COG-LL-332h): 0
